According to publication PMC4861933, “Structural and biochemical characterisation of Archaeoglobus fulgidus esterase reveals a bound CoA molecule in the vicinity of the active site” (Scientific Reports, 2016):

Experiments:
AF-Est2 [1] = molecular target: T1, AF-Est2 (Archaeoglobus fulgidus, UniProt O28735); assay: p-nitrophenol release at […] nm, microplate, Michaelis-Menten fit; format: biochemical; conditions: 50 mM Tris-HCl pH 7.5, 30 °C; enzyme carries co-purified CoA
T1 construct: gene AF_1537; full-length, no stop codon, C-terminal 6xHis tag (pET24d, plasmid pWUR365), E. coli BL21-CodonPlus(DE3)-RIPL; tag kept

AF-Est2 [2] = molecular target: T1, AF-Est2; assay: X-ray crystal structure, […] Å; format: binding; conditions: co-purified from expression host, not added; full occupancy; groove near active site, pantetheine in alcohol pocket
AF-Est2 [3] = molecular target: T1, AF-Est2; assay: phenol red pH-indicator assay at […] nm, Michaelis-Menten fit; format: biochemical; conditions: 1 mM HEPES pH 8.0; kcat is that at 70 °C (one KM printed for 70, 50 and 30 °C)

T1 sequence (O28735 entry or part of it): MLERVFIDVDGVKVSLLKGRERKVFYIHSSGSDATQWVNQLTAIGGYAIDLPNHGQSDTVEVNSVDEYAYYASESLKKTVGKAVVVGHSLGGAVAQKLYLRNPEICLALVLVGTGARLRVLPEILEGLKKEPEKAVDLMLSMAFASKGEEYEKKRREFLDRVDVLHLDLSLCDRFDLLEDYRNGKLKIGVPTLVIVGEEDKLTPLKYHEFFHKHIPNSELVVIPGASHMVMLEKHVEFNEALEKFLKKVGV

SMILES | Km (AF-Est2 [1]) [µM] | also measured
CCC(=O)Oc1ccc([N+](=O)[O-])cc1 [C3, pNP-propionate] | 254 ± 8 | 
CCCCC(=O)Oc1ccc([N+](=O)[O-])cc1 [C5, pNP-valerate] | 19 ± 1 | 
CC(C)(COP(=O)(O)OP(=O)(O)OC[C@H]1O[C@@H](n2cnc3c(N)ncnc32)[C@H](O)[C@@H]1OP(=O)(O)O)[C@@H](O)C(=O)NCCC(=O)NCCS [CoA] |  | X-ray crystal structure, 1.4 Å (AF-Est2 [2]): confirmed the full occupancy of this CoA ligand in the AF-Est2 structure
COC(=O)c1ccc(C)cc1 [methyl p-toluate] |  | Km (AF-Est2 [3]): 1.5 ± 0.1 mM

Further lines, with some results ahead:

Km (AF-Est2 [1]) [µM] | SMILES | also measured
620 ± 10 | CC(=O)Oc1ccc([N+](=O)[O-])cc1 [C2, pNP-acetate] | 
92 ± 3 | CCCC(=O)Oc1ccc([N+](=O)[O-])cc1 [C4, pNP-butyrate] | 
120 ± 10 | CCCCCCCC(=O)Oc1ccc([N+](=O)[O-])cc1 [C8, pNP-caprylate] | 
